Key:
[1] = system: ovalbumin induced murine model of asthma; test: Ovalbumin induced murine model of asthma, BALF eosinophils; format: in vivo, mouse; conditions: female BALB/c mice, 0.3 mg/kg intranasal, OVA challenge
Procedure: The effects of locally administered Nalidixic acid were studied in a mouse model of asthma. Female BALB/c mice, 8 animals per group, were sensitised to ovalbumin (OVA, 10 mg) by intra-peritoneal injection on days 1 and 14 of the study. On days 20, 21, 22 and 23 animals either received a challenge dose of ovalbumin (50 μg) to the lung given by intranasal administration or 50 μl of phosphate buffered saline (PBS, non-challenged group). Animals challenged with OVA also received either PBS vehicle or Nalidixic acid (0.3 mg/kg of body weight) given by intranasal administration for inhalation into the lung. This was administered 30 minutes prior to and 6 hours post each ovalbumin challenge on days 21 to 23 and in addition on day 24, the day between the last challenge and the terminal day of the experiment. Forty-eight hours after the final OVA challenge, mice were anaesthetised with a combination of ketamine hydrochloride (Narketan, 2 mg/mouse) and xylazine hydrochloride (Rompun, 0.07 mg/mice) and sacrificed by carotid exsanguination.
Bronchoalveolar lavage fluid (BAL) was obtained as follows. The trachea was cannulated. Phosphate Buffered Saline (PBS) was used as the lavage fluid, 3 volumes (0.4 ml; 0.3 ml; 0.3 ml; total 1 mL) were gently instilled and withdrawn on 3 consecutive occasions using a 1 ml BD syringe and then placed in an Eppendorf tube (˜1 ml). […]

human mast cells [2] = test: Inhibition of histamine release from human mast cells; format: cell-based; conditions: IgE challenged human cord derived mast cells, 5 min incubation, FIG. 1
Procedure: Protocol: Human derived cord mast cells were cultured using the following method. Commercially available CD34^+ stem cells were cultured for […] in StemSpan (StemCell Technologies, Grenoble, France) serum-free medium supplemented with 100 ng/ml human SCF, 50 ng/ml IL-6 and 1 ng/ml IL-3, and 100 μg/ml penicillin/streptomycin (Peprotech, London, UK). After eight weeks, cells were cultured in StemSpan with 10% FCS. The cells were passaged into new medium every week. Cells were used for experiments between 11 and 18 weeks following confirmation by microscopic examination, c-kit and FcRε1 staining (by FACS), of mast cell morphology. For assessment of drug effects, Nalidixic Acid was incubated for 5 min with aliquots of 2×10^5 CDMCs (cord derived mast cells) cultured in 10% FCS medium. A commercially-available enzyme immunoassay was used to detect and quantify histamine released in the supernatant (SPI bio, Strasbourg, France). The assay was conducted following the manufacturer protocols. A standard curve ranging from 0.39-50 nM histamine was prepared using the reagent provided and the optical density was then read within 60 min in a microplate reader (at 405 nm). In some cases, the total cell content of histamine was established by freeze thawing of cells prior to challenge

phosphatase PP2A = phosphatase PP2A (Homo sapiens, UniProt P67775); test: Inhibition of the phosphatase PP2A; format: biochemical; conditions: statement in summary, no method or data
human mast cells [3] = test: Release of Annexin-A1 from human mast cells (ELISA); format: cell-based; conditions: increasing concentrations of Nalidixic acid, conditioned medium, FIG. 3
Procedure: Human cord derived mast cells were cultured using the methodology described in Example 1. Anx-A1 protein levels in conditioned medium were determined by ELISA. Briefly, 96-well flat-bottomed ELISA plates (Greiner, Gloucestershire, UK) were coated with 1 μg anti-Anx-A1 mAb 1B in bicarbonate buffer (pH 9.6) and incubated overnight at 4° C. After washing in the bicarbonate buffer, potentially uncoated sites were blocked with 100 μL of PBS containing 1% BSA for 1h at room temperature. Sample aliquots (100 μL) or Anx-A1 standard solutions (prepared in 0.1% Tween-20 in PBS; concentration ranging between 10 and 0.001 μg/mL) were added for 1h at 37° C. After extensive washing in PBS/Tween-20, 100 μL of a polyclonal rabbit anti-human Anx-A1 serum (Zymed, Invitrogen, Paisley, UK; diluted 1:1000 in PBS/Tween-20) was added (1h at 37° C.) prior to incubation with donkey anti-rabbit 1 gG conjugated to alkaline phosphatase (1:1000; Sigma). The colour was developed by addition of 100 μL p-nitrophenyl phosphate (1 mg/mL in bicarbonate buffer, pH 9.6). Absorbance was read at 405 nm (with a 620-nm reference filter) in a microplate reader (Titertek™, Vienna, Austria). Anx-A1 levels in the study samples were read against the standard curve and expressed as ng/ml.

human mast cells [4] = test: Inhibition of Prostaglandin D2 release from human mast cells; format: cell-based; conditions: IgE challenged human cord derived mast cells, FIG. 2
Procedure: Human cord derived mast cells were cultured using the methodology described in Example 1. A commercially-available enzyme immunoassay (Cayman Chemical, Michigan, USA) was used to detect and quantify PGD2 released in the supernatant. The assay was conducted following the manufacturer protocols. A standard curve ranging from 78-10,000 pg/ml PGD2 was prepared using the reagent provided and the optical density was then read within 60 min in a microplate reader (at 405 nm).

phosphatase PP2A, sequence (P67775 whole entry): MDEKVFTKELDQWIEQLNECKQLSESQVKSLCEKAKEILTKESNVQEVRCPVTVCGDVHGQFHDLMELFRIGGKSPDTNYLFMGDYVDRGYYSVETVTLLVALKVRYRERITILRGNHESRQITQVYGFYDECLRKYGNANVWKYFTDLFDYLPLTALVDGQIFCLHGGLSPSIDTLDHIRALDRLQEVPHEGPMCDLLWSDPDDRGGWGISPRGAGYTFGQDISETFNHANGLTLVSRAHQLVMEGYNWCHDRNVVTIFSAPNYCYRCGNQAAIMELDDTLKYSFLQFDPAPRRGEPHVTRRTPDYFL

`CCn1cc(C(=O)O)c(=O)c2ccc(C)nc21` [Nalidixic acid] was tested, and the “decrease in total BALF eosinophil counts compared with challenged vehicle treated animals” value ([1]; p<0.05, FIG. 4) was 47%, the “reduction of percentage of eosinophils of the total BALF cellular count versus vehicle treated group” value ([1]; p<0.05, FIG. 5) was 44% and the “inhibition of histamine release” value (human mast cells [2]) was “dose related inhibition”. For the same compound, the “inhibition of the phosphatase PP2A” value (phosphatase PP2A) was “potent inhibitors”, the “Annexin-A1 released from human mast cells” value (human mast cells [3]) was “increase” and the “inhibition of PGD2 release” value (human mast cells [4]) was “dose related inhibition”.

— patent US20160068527A1, “The Treatment of Inflammatory Disorders” (CRESSET BIOMOLECULAR DISCOVERY LTD., priority 2013, published 2016)
